Assay results as given in US20130310355A1, “LOW TOXICITY TOPICAL ACTIVE AGENT DELIVERY SYSTEM” (YOUNG PHARMACEUTICALS, INC., priority 2009, published 2013).

Assay: Solubilization of retinol in cyclomethicone alone
Format: physicochemical
Conditions: retinol 0.1-0.2% w/v in cyclomethicone alone
Excerpt: Volatile organosiloxanes optionally are lightweight carriers that evaporate on application and thus have an elegant, light-weight “feel” on the skin. Volatile organosiloxanes, however, are typically limited in their ability to dissolve low polarity (i.e. usually greater than C7-C8)) organic compounds like retinoids. […] To address this issue vehicles were sought that would be both capable of creating clear solutions of active agent in a volatile organosiloxane carrier, but also have an appropriate evaporation rate in combination with the volatile organosiloxane when placed on the skin so as maintain the light-weight feel on the skin experienced by a user. A vehicle must also not promote unacceptable skin irritation when used at the concentration necessary in the composition.

Appearance of solution: hazy solutions
Compound: CC1=C(/C=C/C(C)=C/C=C/C(C)=C/CO)C(C)(C)CCC1 [retinol]
